{"source": "patent US7041787B2", "about": "“Design and use of advanced zinc chelating peptides to regulate matrix metalloproteinases” (Kimberly-Clark Worldwide, Inc., priority 2000, dated 2006)", "key": {"Epiderm skin model": {"system": "Epiderm skin model", "assay": "Epiderm skin equivalent viability (MTT) assay", "format": "cell-based", "settings": "10 mM peptide in PBS, 12 hours; differences not significant", "procedure": "The relative toxicity of the chelating and substrate peptides was assayed using the skin model Epiderm that is commercially available from MatTek Corp. The individual skin sample containers were preincubated in culture medium at 37° C. under 5% CO2 for two hours prior to the addition of the peptide constructs. The sample containers were transferred to 6 well plates that contained fresh media. All peptides were dissolved in PBS at a final concentration of 10 mM, and 100 μL of each peptide solution was pipetted onto the surface of the Epiderm sample container. Incubation was continued for 12 hours at 37° C. under 5% CO2. After the incubation period, the sample containers were washed three times with PBS and the sample containers were transferred to a 24 well plate that contained 300 μL of MTT assay media per well (MTT concentration was 1 mg/mL). The colorimetric assay was allowed to develop for three hours (incubation at 37° C. under 5% CO2). Sample containers were then transferred to a 24 well culture plate that contained 2 mL of isopropanol per well. […] Absorbance readings were taken at 570 nm and 650 nm for each sample. The percent viability of each sample relative to a PBS control was calculated as: 100×(OD570^sam−OD650^sam)/(OD570^con−OD650^con) (5) Routinely, each peptide sample was assayed in duplicate or triplicate. […]"}, "MMP-9 [1]": {"target": "T1, MMP-9 (Homo sapiens, UniProt P14780)", "T1 construct": "Active MMP-9 enzyme was purchased from Calbiochem; purchased Calbiochem", "T1 sequence (P14780 107-707 limits assumed)": "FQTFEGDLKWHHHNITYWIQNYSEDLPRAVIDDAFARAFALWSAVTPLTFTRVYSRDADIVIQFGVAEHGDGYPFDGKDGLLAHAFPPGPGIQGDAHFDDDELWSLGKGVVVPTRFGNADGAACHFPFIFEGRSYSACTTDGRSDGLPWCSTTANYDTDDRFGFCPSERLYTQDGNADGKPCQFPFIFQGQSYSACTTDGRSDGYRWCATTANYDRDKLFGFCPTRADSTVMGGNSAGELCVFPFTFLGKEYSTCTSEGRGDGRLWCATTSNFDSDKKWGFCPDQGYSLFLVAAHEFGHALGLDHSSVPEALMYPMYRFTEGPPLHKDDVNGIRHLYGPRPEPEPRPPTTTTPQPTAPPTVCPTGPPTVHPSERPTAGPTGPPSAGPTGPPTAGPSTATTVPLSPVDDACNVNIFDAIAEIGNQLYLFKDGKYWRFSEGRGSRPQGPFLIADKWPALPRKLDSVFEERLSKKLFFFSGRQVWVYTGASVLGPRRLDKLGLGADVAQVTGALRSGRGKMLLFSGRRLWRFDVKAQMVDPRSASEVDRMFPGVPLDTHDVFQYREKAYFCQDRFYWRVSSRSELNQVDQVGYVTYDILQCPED", "assay": "FRET substrate peptide cleavage assay with MMP-9", "format": "biochemical", "settings": "for Regulation of MMP-9 in FRET assay (in words): ChePep:MMP-9 molar stoichiometries 0.1:1 to 0.3:1, FIGS. 2-5; for Regulation of MMP-9 compared with other ChePeps (in words): FRET assay, comparison of molar stoichiometries", "procedure": "The second assay utilized the technique of fluorescence resonance energy transfer (FRET). The substrate peptide (Calbiochem #444221) comprised seven amino acids, coupled to a carboxyl terminal dinitrophenyl acceptor, and an amino terminal 2-aminobenzo-anthraniloyl (Abz) moiety donor. Cleavage of this substrate by MMP-9 results in the liberation of a fluorescent product (365 nm excitation, 450 nm emission). […] MMP at a concentration of 0.1 μM was mixed with varying amounts of chelating peptide (0, 0.01, 0.02, 0.04, and 0.1 μM) and incubated at 25° C. for 10 minutes to effect binding. The protein mixture was added to the peptide substrate and mixed quickly. Fluorescence intensity as a function of time was measured with a Dynex MFX fluorescence microtiter plate reader. Fluorescence intensity was related back to moles of peptide cleaved by producing a standard curve with an Abz containing non-FRET peptide. Inhibitory constants were derived from the curves and are listed below in Table 2."}, "MMP-9 [2]": {"target": "T1, MMP-9", "assay": "Surface plasmon resonance (BiaCore) binding of chelating peptide to immobilized MMP-9", "settings": "FIG. 6", "procedure": "The BiaCore-X surface plasmon resonance (SPR) device was utilized to measure the interaction between the chelating peptide (CP) and MMP-9. For these experiments a carboxymethyl dextran sensor chip (BiaCore, AB; CM-5, Lofas et al., 1993) was activated with 50 mM N-hydroxysuccinimide, 0.2 M N-ethyl-N′-(dimethylaminopropyl)-carbodiimide at a flow rate of 10 μL per minute for ten minutes. MMP-9 at a concentration of 75 ng/μL was coupled to the activated surface at a flow rate of 10 μL per minute for ten minutes. The final surface was inactivated by flowing 1 M ethanolamine HCl at a rate of 10 μL per minute for five minutes over the sensor surface. CP was flowed over the sensor surface at a rate of 20 μL per minute, and at concentrations of 10, 25, and 50 nM. Binding isotherms were evaluated by simultaneously fitting the forward (ka) and reverse (kd) rate constants to the following formula: d[CP˜MMP-9]/dt=(ka[CP][MMP-9])−(kd[CP˜MMP-9]) (2) (Karlsson and Falt, 1997) where [CP], [MMP-9], and [CP˜MMP-9] are the concentrations of free chelating peptide, free MMP-9, and the complex respectively. […]"}, "MMP-9 [3]": {"target": "T1, MMP-9", "assay": "Enzymatic hydrolysis of fluoresceinated collagen by MMP-9 (fluorescein release assay)", "format": "biochemical", "settings": "MMP-9:ChePep-1 molar stoichiometries 1:0 to 1:1, FIG. 1", "procedure": "Two enzymatic assays were performed. The first assay measured the enzymatic hydrolysis of fluoresceinated collagen by MMP-9 as a function of time. Fluoresceinated collagen (Molecular Probes, Inc.), at a concentration of 5 μM was added to reaction buffer (50 mM Tris-HCl (pH 7.6), 150 mM NaCl, 5 mM CaCl2, 0.1 mM NaN3) and was placed into a Spectrosil quartz fluorometer cuvette. MMP at a concentration of 0.1 μM was mixed with varying amounts of chelating peptide having SEQ ID No. 4 or 6 and incubated at 25° C. for 10 minutes to effect binding. The protein mixture was added to the collagen substrate and mixed quickly. Fluorescence emission intensity at 520 nm was measured as a function of time (excitation wavelength 495 nm) in a Shimadzu RF5301 fluorometer. The fluorescein release assay was used to determine the inhibitory constant (Ki) of the chelating peptide inhibitor ([I]) according to Segel (1993) via the use of Dixon plots (1/v vs. [I]), such that: slope=Km/(VmaxKi[S]) (1) where Km is the Michaelis constant, Vmax is the reaction maximum velocity, and [S] is the substrate concentration."}}, "note": "*1 amine or outer side, *2 acyl side, *3 side chain or, on linkers, in order; H or OH if unused. Where a SMILES comes first, the peptide text is derived from it. [ ]: non-standard residue; d: D form. The star is where a group is joined. X2 = O=C(O)CN(CC(=O)O)CC(=O)NC(=O)C[C@H](N[*:1])C(=O)[*:2]; X3 = O=C(O)CN(CC(=O)O)CC(C(=O)NCCS*)N(CC(=O)O)CC(=O)O; X1 = O=C(O)CN(CC(=O)O)c1cc(F)ccc1OCC(=O)*", "data": [{"compound": "2-amino-4-fluorophenol N,N,O triacetic acid [AFTA]", "values": [{"measurement": "Percent viability relative to PBS control, by zinc chelator of the construct", "setting": "Epiderm skin model", "result": 90.5, "unit": "%"}]}, {"compound": "CC(C)[C@H](NC(=O)[C@@H]1CCCN1C(=O)[C@@H](NC(=O)[C@H](C)NC(=O)[C@H](CO)NC(=O)[C@@H](N)CC(=O)NC(=O)CN(CC(=O)O)CC(=O)O)C(C)C)C(=O)N[C@@H](Cc1c[nH]cn1)C(N)=O", "note": "[ChePep-2] (H-[X2]SAVPVH-NH2)", "values": [{"measurement": "Regulation of MMP-9 in FRET assay (in words)", "setting": "MMP-9 [1]", "result": "dose dependent manner"}, {"measurement": "Regulation of MMP-9 compared with other ChePeps (in words)", "setting": "MMP-9 [1]", "result": "significantly more effective in regulating MMP-9 than was ChepPep-1"}]}, {"compound": "pyridine disulfide ethylenediaminetetraacetic acid [PSDE]", "values": [{"measurement": "Percent viability relative to PBS control, by zinc chelator of the construct", "setting": "Epiderm skin model", "result": 96.5, "unit": "%"}]}, {"compound": "CC[C@H](C)[C@H](N)C(=O)N[C@@H](Cc1ccc(O)cc1)C(=O)N[C@H](C(=O)N[C@@H](C)C(=O)N[C@@H](CSSCCNC(=O)C(CN(CC(=O)O)CC(=O)O)N(CC(=O)O)CC(=O)O)C(=O)N[C@@H](CCSC)C(=O)N[C@@H](CO)C(=O)N[C@@H](C)C(=O)N[C@H](C(N)=O)C(C)C)[C@@H](C)O", "note": "(some centres unmarked) [ChePep-3] (H-IYTAC(X3)MSAV-NH2; N-terminus assumed)", "values": [{"measurement": "Regulation of MMP-9 compared with other ChePeps (in words)", "setting": "MMP-9 [1]", "result": "nearly identical ability to regulate MMP-9"}]}, {"compound": "CC(C)C(NC(=O)C(CS)NC(=O)C(NC(=O)C(CS)NC(=O)COc1ccc(F)cc1N(CC(=O)O)CC(=O)O)C(C)O)C(=O)N1CCCC1C(=O)O", "note": "(centres unmarked) [ChePep-6] (X1-CTCVP-OH; configuration not given here)", "values": [{"measurement": "Regulation of MMP-9 in FRET assay (in words)", "setting": "MMP-9 [1]", "result": "effective MMP-9 regulator at low molar stoichiometries"}, {"measurement": "Regulation of MMP-9 compared with other ChePeps (in words)", "setting": "MMP-9 [1]", "result": "most potent regulator of all the ChePeps"}, {"measurement": "SPR association / affinity for immobilized MMP-9 (in words)", "setting": "MMP-9 [2]; 400 second association phase, 20 μL per minute", "result": "binds quickly and with high affinity"}, {"measurement": "SPR dissociation from immobilized MMP-9 (in words)", "setting": "MMP-9 [2]; 800 second dissociation phase", "result": "does not dissociate"}]}, {"compound": "CC[C@H](C)[C@H](N)C(=O)N[C@@H](Cc1ccc(O)cc1)C(=O)N[C@H](C(=O)N[C@@H](C)C(=O)N[C@@H](CC(=O)NC(=O)CN(CC(=O)O)CC(=O)O)C(=O)N[C@@H](CCSC)C(=O)N[C@@H](CO)C(=O)N[C@@H](C)C(=O)N[C@H](C(N)=O)C(C)C)[C@@H](C)O", "note": "[ChePep-4] (H-IYTA[X2]MSAV-NH2; N-terminus and C-terminus assumed)", "values": [{"measurement": "Regulation of MMP-9 compared with other ChePeps (in words)", "setting": "MMP-9 [1]", "result": "nearly identical ability to regulate MMP-9"}]}, {"compound": "CC(C)[C@H](NC(=O)[C@@H]1CCCN1C(=O)[C@@H](NC(=O)[C@H](C)NC(=O)[C@H](CO)NC(=O)[C@@H](N)CSSCCNC(=O)C(CN(CC(=O)O)CC(=O)O)N(CC(=O)O)CC(=O)O)C(C)C)C(=O)N[C@@H](Cc1c[nH]cn1)C(=O)O", "note": "(some centres unmarked) [ChePep-1] (H-C(X3)SAVPVH-OH)", "values": [{"measurement": "Regulation of MMP-9 hydrolysis of fluoresceinated collagen (in words)", "setting": "MMP-9 [3]", "result": "prevents the enzyme from degrading fluoresceinated collagen in a dose dependent manner"}]}]}
